PubChem BioAssay AID1918998 (Molecular Pharmacology Branch, DTP, NCI, 2023)

Tested on: 521955-158-R2-J5-PDC complex spheroid growth
Test: Anticancer human tumor 521955-158-R2-J5-PDC patient-derived pancreatic carcinoma cell line growth inhibition [AhR]
Conditions: for IC50: curve of first compound; for viability, T/C: stronger effect = lower value
Excerpt: Multicellular complex tumor spheroid response to aryl hydrocarbon receptor antagonists in combination with a variety of drugs and investigational agents in selected tumor cell lines
The current study was undertaken to assess response to aryl hydrocarbon receptor antagonists in combination with standard-of-care drugs and investigational agents in solid tumor complex spheroid models. Complex spheroids include a stromal component modeled by human endothelial cells (HUVEC) and fibroblasts modeled by human mesenchymal stem cells (MSCs). The concentration ranges selected for each drug and investigational agent were based upon clinically achievable concentrations if the clinical Cmax of the agent was known.
Compounds. The drugs and investigational agents: BAY 2416964 (NSC825713), GNF351 (NSC835774), CH-223191 (NSC835775), CPI-455 (NSC825282), aza-TdCyd (NSC777586), decitabine (NSC127716), belinostat (NSC758774), entinostat (NSC756642), pevonedistat (NSC761192), tazemetostat (NSC777109), talazoparib (NSC765396), olaparib (NSC753686), selinexor (NSC780203), nedisertib (M3814, NSC802822), bortezomib (NSC756655), venetoclax (NSC766270), doxorubicin (NSC123127), elimusertib (BAY189344, NSC800525), ceralasertib (AZD6738, NSC777638), TAK-243 (NSC785004), alisertib (NSC759677), etoposide (NSC141540), topotecan (NSC609699), eribulin (NSC707389), gemcitabine (NSC613327), carboplatin (NSC241240), cisplatin (NSC119875), and SN-38 (NSC673596) were obtained from the National Cancer Institute (NCI) Developmental Therapeutics Program Chemical Repository (32). The FDA-approved anticancer drug set is available from the Developmental Therapeutics Program at https://dtp.cancer.gov/organization/dscb/obtaining/available plates.htm. […] The stock solutions were prepared in dimethyl sulfoxide (DMSO, Sigma-Aldrich, St. Louis, MO, cat. D2650), except for the platinum compounds which were prepared in saline (Quality Biological, Gaithersburg, MD, cat. 114-055-101), at 800-fold the tested concentration and stored at -70 degrees C prior to their use. All drugs and investigational agents were tested over a range starting from a high concentration at or near the clinical Cmax and decreasing in half-log increments. If the clinical Cmax for an agent had not been determined, the highest concentration tested was 10 microM (Table 1).
Cell Culture. All cells were maintained in an incubator at 37 degrees C and 5% CO2 with 95% humidity. The PDC lines were cultured according to standard operating procedures established by the NCI PDMR (https://pdmr.cancer.gov). Briefly, all PDCs were thawed and cultured in Matrigel-coated flasks prepared with a working solution of 1X Ham's F-12 nutrient mix, without supplementation (Invitrogen, Waltham, MA, cat. 11765054), 100 U/mL penicillin-streptomycin (Invitrogen, cat. 15140122), and 2.5% Matrigel (Corning Inc., Corning, NY, cat. 354248) for the first three passages. All PDCs were cultured in complete DMEM/F-12 media containing advanced DMEM/F-12 (Invitrogen, cat. 12634028), 4.9% defined fetal bovine serum, heat inactivated (HyClone Laboratories Inc., Logan, UT, cat. SH30070.03HI), 389 ng/mL hydrocortisone (Sigma-Aldrich, cat. H4001), 9.7 ng/mL human EGF recombinant protein (Invitrogen, cat. PHG0313), 23.4 microg/mL adenine (Sigma-Aldrich, cat. A2786), 97.3 U/mL penicillin-streptomycin (Invitrogen, cat. 15140122), 1.9 mM L-glutamine (Invitrogen, cat. 25030081), and 9.7 microM Y-27632 dihydrochloride (Tocris Bioscience, Bristol, United Kingdom, cat. 1254). The PDCs were cultured in complete DMEM/F12 media without 10 microM Y-27632 dihydrochloride for at least two passages prior to the screen. The established cell lines NCI-H1341 and […] were cultured in DMEM/F-12, HEPES (Invitrogen, cat. 11330032), 5% defined fetal bovine serum (HyClone Laboratories Inc., cat. SH30070.03), ITS premix universal culture supplement [insulin (5 microg/mL), transferrin (5 microg/mL), and selenious acid (5 ng/mL)] […]

[1] = second compound 0.1 µM, first compound 0.0316 µM
[2] = second compound 0.1 µM, first compound 0.1 µM
[3] = second compound 0.1 µM, first compound 0.316 µM
[4] = second compound 0.1 µM, first compound 1 µM
[5] = second compound 0.1 µM, first compound 3.16 µM
[6] = second compound 0.1 µM, first compound 10 µM
[7] = second compound 0.316 µM, first compound 0.0316 µM
[8] = second compound 0.316 µM, first compound 0.1 µM
[9] = second compound 0.316 µM, first compound 0.316 µM
[10] = second compound 0.316 µM, first compound 1 µM
[11] = second compound 0.316 µM, first compound 3.16 µM
[12] = second compound 0.316 µM, first compound 10 µM
[13] = second compound 1 µM, first compound 0.0316 µM
[14] = second compound 1 µM, first compound 0.1 µM
[15] = second compound 1 µM, first compound 0.316 µM
[16] = second compound 1 µM, first compound 1 µM
[17] = second compound 1 µM, first compound 3.16 µM
[18] = second compound 1 µM, first compound 10 µM
[19] = second compound 3.16 µM, first compound 0.0316 µM
[20] = second compound 3.16 µM, first compound 0.1 µM
[21] = second compound 3.16 µM, first compound 0.316 µM
[22] = second compound 3.16 µM, first compound 1 µM
[23] = second compound 3.16 µM, first compound 3.16 µM
[24] = second compound 3.16 µM, first compound 10 µM
[25] = second compound 10 µM, first compound 0.0316 µM
[26] = second compound 10 µM, first compound 0.1 µM
[27] = second compound 10 µM, first compound 0.316 µM
[28] = second compound 10 µM, first compound 1 µM
[29] = second compound 10 µM, first compound 3.16 µM
[30] = second compound 10 µM, first compound 10 µM
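Throughout, for viability, T/C: spheroids mix tumor cells with HUVEC endothelium and human MSC stroma; luminescence taken as viability surrogate after a week of drug exposure.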

Compound: Nc1ccccc1NC(=O)c1ccc(CNC(=O)OCc2cccnc2)cc1 + CC(CO)NC(=O)c1cc(-c2ccc(Cl)cc2)nn(-c2cnn(C)c2)c1=O
- IC50 (second compound 0.1 µM): 4.56 µM
- IC50 (second compound 0.316 µM): 3.74 µM
- IC50 (second compound 1 µM): 2.94 µM
- IC50 (second compound 3.16 µM): 3.62 µM
- IC50 (second compound 10 µM): 3.36 µM
- viability, T/C [1]: 119%
- viability, T/C [2]: 126%
- viability, T/C [3]: 123%
- viability, T/C [4]: 87.9%
- viability, T/C [5]: 66.2%
- viability, T/C [6]: 22.9%
- viability, T/C [7]: 111%
- viability, T/C [8]: 130%
- viability, T/C [9]: 114%
- viability, T/C [10]: 85.9%
- viability, T/C [11]: 57.1%
- viability, T/C [12]: 25.2%
- viability, T/C [13]: 118%
- viability, T/C [14]: 134%
- viability, T/C [15]: 120%
- viability, T/C [16]: 77.1%
- viability, T/C [17]: 54.6%
- viability, T/C [18]: 20%
- viability, T/C [19]: 115%
- viability, T/C [20]: 109%
- viability, T/C [21]: 117%
- viability, T/C [22]: 75.6%
- viability, T/C [23]: 58.8%
- viability, T/C [24]: 17.6%
- viability, T/C [25]: 94.7%
- viability, T/C [26]: 91%
- viability, T/C [27]: 101%
- viability, T/C [28]: 81.6%
- viability, T/C [29]: 52.6%
- viability, T/C [30]: 14.1%

Compound: O=C(C=Cc1cccc(S(=O)(=O)Nc2ccccc2)c1)NO + CC(CO)NC(=O)c1cc(-c2ccc(Cl)cc2)nn(-c2cnn(C)c2)c1=O
- IC50 (second compound 0.1 µM): 4.62 µM
- IC50 (second compound 0.316 µM): 4.89 µM
- IC50 (second compound 1 µM): 3.6 µM
- IC50 (second compound 3.16 µM): 5.85 µM
- IC50 (second compound 10 µM): 4.59 µM
- viability, T/C [1]: 108%
- viability, T/C [2]: 107%
- viability, T/C [3]: 122%
- viability, T/C [4]: 93.2%
- viability, T/C [5]: 58.3%
- viability, T/C [6]: 35.5%
- viability, T/C [7]: 114%
- viability, T/C [8]: 135%
- viability, T/C [9]: 131%
- viability, T/C [10]: 91.2%
- viability, T/C [11]: 62.6%
- viability, T/C [12]: 35%
- viability, T/C [13]: 131%
- viability, T/C [14]: 126%
- viability, T/C [15]: 120%
- viability, T/C [16]: 92.9%
- viability, T/C [17]: 53.2%
- viability, T/C [18]: 26.5%
- viability, T/C [19]: 117%
- viability, T/C [20]: 101%
- viability, T/C [21]: 114%
- viability, T/C [22]: 98.1%
- viability, T/C [23]: 67.3%
- viability, T/C [24]: 35.1%
- viability, T/C [25]: 94.1%
- viability, T/C [26]: 90.6%
- viability, T/C [27]: 82.8%
- viability, T/C [28]: 86.2%
- viability, T/C [29]: 61.4%
- viability, T/C [30]: 25.1%
